Legend:
[1] = test system: ABT-263-resistant Jurkat (Jurkat-R); assay: Apoptotic cell death by DNA fragmentation, ABT-263-resistant Jurkat; type: cell-based, human; conditions: Jurkat treated with increasing ABT-263 up to 10 μM, 3 months
Experimental: (§1) Wogonin (BIOTREND Chemicals AG, Wangen, Switzerland), apigenin, chrysin, luteolin and baicalein (Sigma, St. Louis, USA) were solved in dimethyl sulfoxide (DMSO; Roth, Karlsruhe, Germany) at a stock concentration of 50 mM. Cells were treated with different concentrations of different flavones or ABT-263 (Selleck Chemicals, Houston, USA) for 24 to 48 h. Apoptotic cell death was examined by analysis of DNA fragmentation as previously described 23 (Fas et al.,2006, Blood 108: 3700-6). Results are presented as % specific DNA fragmentation using the formula: (percentage of experimental apoptosis-percentage of spontaneous apoptosis)/(100-percentage of spontaneous apoptosis)×100.

[2] = test system: prostatic cancer cell line PC3; assay: Apoptotic cell death by DNA fragmentation, PC3; type: cell-based, human; conditions: 1 μM ABT-263, 48 h
Experimental: (§2) The human malignant cell lines used in this study are the T cell leukemic cell lines CEM, Molt-4 and Jurkat (J16), the HL cell line KM-H2, the cervix adenocarcinoma cell line HeLa, the melanoma cell line A375, the hepatocellular carcinoma cell line HepG2, the pancreatic carcinoma cell line MiaPaca, the breast cancer cell line MCF-7, the prostatic cancer cell line PC3 and the colon carcinoma cell line HCT116. All cells were cultured in RPMI 1640 or DMEM medium (GIBCO laboratories, Grand Island, USA), supplemented with 10% FCS, 100 Units/ml penicillin (GIBCO), 100 μg/m1 streptomycin (GIBCO) and 2 mM L-glutamine (GIBCO) at 37° C. and 5%. Wogonin (BIOTREND Chemicals AG, Wangen, Switzerland), apigenin, chrysin, luteolin and baicalein (Sigma, St. Louis, USA) were solved in dimethyl sulfoxide (DMSO; Roth, Karlsruhe, Germany) at a stock concentration of 50 mM. Cells were treated with different concentrations of different flavones or ABT-263 (Selleck Chemicals, Houston, USA) for 24 to 48 h. Apoptotic cell death was examined by analysis of DNA fragmentation as previously described 23 (Fas et al.,2006, Blood 108: 3700-6). Results are presented as % specific DNA fragmentation using the formula: (percentage of experimental apoptosis-percentage of spontaneous apoptosis)/(100-percentage of spontaneous apoptosis)×100.

[3] = test system: cervix adenocarcinoma cell line HeLa; assay: Apoptotic cell death by DNA fragmentation, HeLa; type: cell-based, human; conditions: 1 μM ABT-263, 48 h
Experimental: as §2

Mcl-1 = assay: Western blot analysis of Mcl-1 expression; type: cell-based, human; conditions: Jurkat and CEM with acquired ABT-263 resistance
From the text: (§3) For each sample, 1×10^7 cells were lysed as previously described. 23 Equal amounts of protein were separated on 5-13% SDS-PAGE depending on the molecular sizes of the proteins and blotted onto a nitrocellulose membrane (Amersham Biosciences, Little Chalfon, UK) as previously described. 23 The following antibodies were used: Bad, Bax, Bcl-xL, Bcl-w, XIAP from Cell Signaling Technology, Danvers, USA; Bcl-2 (sc-509) and Mcl-1 (sc-819) from Santa Cruz Biotechnology, Heidelberg, Germany; Tubulin and actin from Sigma, Saint Louis, USA.

human ALL RS4;11 = conditions: 100 mg/kg/day; cited from earlier work
[4] = test system: hepatocellular carcinoma cell line HepG2; assay: Apoptotic cell death by DNA fragmentation, HepG2; type: cell-based, human; conditions: HepG3 (so in the source); 1 μM ABT-263, 48 h
Experimental: as §2

melanoma cell line A375 = assay: Apoptotic cell death by DNA fragmentation, A375; type: cell-based, human; conditions: 1 μM ABT-263, 48 h
Experimental: as §2

[5] = test system: breast cancer cell line MCF-7; assay: Apoptotic cell death by DNA fragmentation, MCF-7; type: cell-based, human; conditions: 1 μM ABT-263, 48 h
Experimental: as §2

[6] = test system: pancreatic carcinoma cell line MiaPaca; assay: Apoptotic cell death by DNA fragmentation, MiaPaca; type: cell-based, human; conditions: 1 μM ABT-263, 48 h
Experimental: as §2

[7] = test system: Hodgkin lymphoma (HL) cell line KM-H2; assay: Apoptotic cell death by DNA fragmentation, KM-H2; type: cell-based, human; conditions: 1 μM ABT-263, 48 h
Experimental: as §2

[8] = test system: proliferating normal peripheral blood T cells; assay: Apoptotic cell death by DNA fragmentation, proliferating normal T cells; type: cell-based; conditions: human
Experimental: Normal T cells were isolated from peripheral blood of healthy donors and activated to proliferate as described in the Materials and Methods. The proliferating T cells were treated with different concentrations of ABT-263 in the absence or presence of wogonin as indicated. Apoptotic cell death was determined by DNA fragmentation. Results are presented as pooled data from four independent donors. (B) Proliferating normal T cells express higher levels of Mcl-1 and Bcl-2 than leukemic Jurkat and Molt-4 T cells. Total cell lysates of activated T cells from three healthy donors were compared with leukemic cells for the expression levels of Mcl-1, Bcl-2, Bcl-xL and Bcl-w. CDK6 is known to be over-expressed in many tumor cells and was used as a marker for malignant cells. Representative blots from two independent experiments are shown. […] Human platelets in 10% FCS were treated with different concentrations of ABT-263 in the absence or presence of wogonin as indicated. After 1 h treatment, apoptotic cell death was determine by staining with annexin V/FITC. Results are average of two independent assays.
Human peripheral blood T cells were prepared as described previously 23 and were more than 90% CD3 positive. For generation of proliferating T cells, freshly isolated T cells were cultured at 2×10^6 cells/ml and were activated with […] PHA overnight. Activated T cells were then washed three times and cultured for additional 5 days in the presence of 25 U/ml IL-2. Platelets were prepared as described in Vogler et al., 2011, Blood 117: 7145-54.
as §1, with “Results are presented as % specific DNA fragmentation using the formula: (percentage of experimental apoptosis-percentage of spontaneous apoptosis)/(100-percentage of spontaneous apoptosis)×100.” left out

Colo-357 cells = assay: Apoptotic cell death by DNA fragmentation, Colo-357; type: cell-based; conditions: 1 μM ABT-263, 48 h
Experimental: as §1

CEM tumors = assay: CEM xenograft in immunodeficient mice; type: in vivo; conditions: Rag2-/-/Il2rg-/- mice, s.c. CEM; ABT-263 50 mg/kg p.o. and/or wogonin 50 mg/kg i.p.
Experimental: Immunodeficient mice (Rag2−/−/II2rg−/−) were implanted subcutaneously in the dorsal flank region with CEM (5×10^7 cells). After the tumors reached to approximate 35 mm3, tumor size matched mice were treated with ABT-263 (50 mg/kg, once in each third or fourth day) in the presence or absence of 50 mg/kg wogonin. ABT-263 was formulated according to the protocol previously described 9 and administered p.o. Wogonin dissolved in DMSO was diluted in sunflower oil and administered i.p. For combination studies, ABT-263 was given 2 h before wogonin. The control group was treated in an analogous manner with the vehicle. The tumor size was measured with a micrometer caliper two to three times weekly and the tumor volume (V) was calculated by the formula V=(width2×length)/2. All protocols using and maintaining animals were approved by the German Animal Protection Authority (Office Regierungsprasidium Karlsruhe) in Karlsruhe.

[9] = test system: ABT-263-resistant CEM (CEM-R); assay: Apoptotic cell death by DNA fragmentation, ABT-263-resistant CEM; type: cell-based, human; conditions: CEM treated with increasing ABT-263 up to 1 μM, 2 months
Experimental: as §1

[10] = test system: colon carcinoma cell line HCT116; assay: Apoptotic cell death by DNA fragmentation, HCT116; type: cell-based, human; conditions: 1 μM ABT-263, 48 h
Experimental: as §2

[11] = test system: caspase-8, caspase-3, PARP; assay: Western blot of caspases and PARP; type: cell-based, human; conditions: Jurkat (J16); combination with ABT-263, 24 h
From the text: as §3
(§4) To investigate whether rocaglamide could enhance the toxicity of ABT-263 on leukemic cells, leukemic T cell line Jurkat and the HTLV-1-associated ATL cell line MT-2 were treated with indicated amounts of ABT-263 in the absence or presence of different concentration of rocaglamide for 48 h. Apoptotic cell death was determined by DNA fragmentation.

[12] = test system: HTLV-1-associated ATL cell line MT-2; assay: Apoptotic cell death by DNA fragmentation, MT-2; type: cell-based, human; conditions: ABT-263 with different concentrations of rocaglamide, 48 h
Experimental: as §1, §4

Jurkat (J16) cells = assay: Apoptotic cell death by DNA fragmentation, Jurkat; type: cell-based, human; conditions: Jurkat; ABT-263 with different concentrations of rocaglamide, 48 h
Experimental: as §2

Compound | sensitivity to ABT-263 after long-term exposure [1] | cell death [2] | cell death [3] | Mcl-1 expression after long-term ABT-263 exposure (Mcl-1) | tumor response (human ALL RS4;11) | cell death [4] | cell death (melanoma cell line A375) | cell death [5] | cell death [6] | cell death [7] | sensitivity of proliferating normal T cells to ABT-263 [8] | cell death (Colo-357 cells) | tumor growth / tumor response (CEM tumors) | sensitivity to ABT-263 after long-term exposure [9] | cell death [10] | activities of caspase-8, caspase-3 and PARP cleavage [11] | sensitization of ABT-263-induced apoptosis [12] | sensitization of ABT-263-induced apoptosis (Jurkat (J16) cells)
CC1(C)CCC(c2ccc(Cl)cc2)=C(CN2CCN(c3ccc(C(=O)NS(=O)(=O)c4ccc(N[C@H](CCN5CCOCC5)CSc5ccccc5)c(S(=O)(=O)C(F)(F)F)c4)cc3)CC2)C1 [ABT-263, (R)-4-(4-((4′-chloro-4,4-dimethyl-3,4,5,6-tetrahydro-[1,1′-biphenyl]-2-yl)methyl)piperazin-1-yl)--N-((4-((4-morpholino-1-(phenylthio)butan-2-yl)amino)-3-((trifluoromethyl)sulfonyl)phenyl)sulfonyl)benzamide] | resistant to ABT-263 | less than 5% | less than 5% | elevated Mcl-1 expression | complete tumor response rate | 10-20% | 10-20% | less than 5% | less than 5% | less than 5% | higher resistance to ABT-263 compared to leukemic cells | less than 5% | no significant inhibition of tumor growth | resistant to ABT-263 | 10-20% | – | – | –
COc1ccc([C@@]23Oc4cc(OC)cc(OC)c4[C@]2(O)[C@H](O)[C@H](C(=O)N(C)C)[C@H]3c2ccccc2)cc1 [rocaglamide, (1R,2R,3S,3aR,8bS)-1,8b-dihydroxy-6,8-dimethoxy-3a-(4-methoxyphenyl)—N,N-dimethyl-3-phenyl-2,3-dihydro-1H-cyclopenta[b][1]benzofuran-2-carboxamide] | – | – | – | – | – | – | – | – | – | – | – | – | – | – | – | Significant enhancement of activities of caspase-8, caspase-3 and increase in PARP cleavage | sensitized by rocaglamide in both leukemic cell lines in a dose-dependent manner | sensitized by rocaglamide in both leukemic cell lines in a dose-dependent manner

Reference: patent US20160158189A1, “SENSITIZATION OF CANCER CELLS TO APOPTOSIS INDUCTION BY FLAVAGLINES AND 5-HYDROXY-FLAVONES” (DEUTSCHES KREBSFORSCHUNGSZENTRUM, priority 2013, published 2016)
